Values joined by “and” are separate entries in the source; they are usually repeats but may differ in a detail not shown here. Equal values may be shown once. Read-outs that look alike come from different tables or passages of the source.
Experiments:
[1] = test system: hamster platelets; assay: Platelet adhesion on collagen coated surface (hyperlipidemic hamster model, ex vivo); format: in vivo, hamsters; settings: for Platelet adhesion hyperlipidemic hamsters: Table 2 summary; for platelet adhesion over collagen coated surface: hyperlipidemic hamsters, ex vivo
Protocol: Platelet adhesion to collagen was measured in polystyrene 96-well micro titer plates. Micro titer plates were coated with insoluble equine tendon native fibrillar type I collagen (Chrono-Log Corp. Havertown, USA), 2 μg/well in 5 mM acetic acid (Tandon N N, Ockenhouse C F, Greco […]. Adhesive functions of platelet lacking GPIV (CD36). Blood 1991; 78: 2809-13) overnight at 4° C. The unoccupied protein binding sites on the wells were blocked with 0.5% BSA in Tyrode's-HEPES buffer (136.7 mM NaCl, 13.8 mM NaHCO3. 0.36 mM NaH2PO4.H2O, 2.6 mM KCl, 1.0 mM MgCl2.6H2O, 5.5 mM glucose, pH 7.4) at room temperature for 1 hour, and then rinsed once with PBS. Washed platelets were suspended in the Tyrode's-HEPES buffer and added to the wells (2×10^7 cells/well) for 1 h at room temperature. After three washes with PBS, the number of adherent platelets was evaluated colorimetrically (Bellavite P., Andrioli G., Gizzo P., Arigliano P., Chirumbolo […] colorimetric method for the measurement of platelet adhesion in microtiter plates. Anal. Blochem. 1994; 216:444-450). Briefly, 150 μl of a 0.1 M citrate buffer (pH 5.4), containing 5 mM p-nitrophenyl phosphate and 0.1% TritonX-100 was added to the wells after washing. After incubation for 30 minutes at 25° C. in the absence of ambient light, colour was developed by the addition of 100 μl of 2N NaOH and the absorbance at 405 nm was read using a microplate reader (Powerware XS, Biotek, USA).

[2] = test system: rats; assay: Arterio-venous shunt model in rats; format: in vivo; settings: for Arterio-venous shunt model in rat: Table 2 summary; for thrombus weight: rats, given 1 hr prior to shunt
Excerpt: Rats were grouped into control, aspirin and test compound group, each group having six animals. Rats were anesthetized with urethane (1.25 g/kg). Cervical incision was made and carotid artery and its contra lateral jugular vein was exposed to prepare a shunt by using polyethylene tubes. Two 7 cm siliconized polyethylene tubes (0.5/1.0 mm inner/outer diameter) were linked to a central 6 cm silicon tube (1.0/1.5 mm, inner/outer diameter) containing a 5 cm silk thread (pre-weighed) and were filled with saline. The shunt assembly was cannulated between the jugular vein and contra-lateral carotid artery and blood was allowed to circulate through the shunt. Blood flow through the shunt was maintained for 10 minutes, subsequently the central part of the shunt was removed and silk thread having thrombus deposit was taken out and weighed. The thrombus adhered/deposited on thread was calculated by subtracting the wet weight of the silk thread. The standard drugs and test compounds were given 1 hr prior to the establishment of arterio-venous shunt (Tohti I, Tursun M, Umar A, Turdi S, Imin H, Moore N. Aqueous extracts of Ocimum basilicum L. (sweet basil) decrease platelet aggregation induced by ADP and thrombin in vitro and rats arterio-venous shunt thrombosis in vivo. Thrombosis Res. 2006; 118: 733-739).

[3] = test system: human platelet rich plasma (collagen induced aggregation); assay: Collagen induced platelet aggregation, human platelet rich plasma (in vitro); format: cell-based; settings: for IC50: human PRP, collagen 2 μg/ml, read-out: Collagen induced platelet aggregation studies (Human) IC50; for activity against collagen induced aggregation: in vitro, human platelet rich plasma
Protocol: The reaction was allowed to proceed for at least 5 min, and the extent of aggregation was expressed in light-transmission units (Ivandic B T, Schlick P, Starltz P, Kurz K, Katas H A, Giannitsis E. Determination of clopidogrel resistance by whole blood platelet aggregometry and inhibitors of the P2Y12 receptor. Clinical Chemistry 2006: 52:383-88).
The percentage of aggregation was calculated by using following formula: Percent Aggregation=A/B×100 Where, A is the number of division traversed by the label on chart in the presence of Inducer & B is the total number of divisions (80). Platelet Aggregation Studies (FIG. 3) a) Platelet Aggregation (Human, In Vitro) (FIG. 3a (i) (ii) (iii))

[4] = test system: mice; assay: Collagen-epinephrine induced pulmonary thromboembolism in mice; format: in vivo; settings: Table 2 summary; how long protection lasts
Excerpt: To assess the antithrombotic efficacy of Compounds, mice were divided into vehicle, aspirin and Compounds treated groups, and each group included ten animals. […] Results have been reported as percentage protection, which represents protection against collagen and epinephrine induced thrombosis and expressed as: Percent Protection=(1-([…]-number of animals paralyzed/dead in test compound-treated group; Pcontrol-number of animals paralyzed/dead in vehicle treated group. Collagen Epinephrine Induced Pulmonary Thromboembolism (FIG. 1): […]

[5] = test system: hamster whole blood (Collagen 2.5 μg/ml); assay: Whole blood aggregation in hyperlipidemic hamsters (ex vivo), collagen induced; settings: Table 2 summary
[6] = test system: mice; assay: Tail bleeding time in mice; format: in vivo; settings: for Bleeding Time in mice: Table 2 summary; for prolongation in bleeding time: 30 μM/kg, 1 hr p.o. dosing
Protocol: Bleeding time in mice was evaluated by the method of Dejana et al, (Dejana E, Callioni A, Quintana A, Gaetano G. Bleeding time in laboratory animals. II—A comparison of different assay conditions in rats. […] The time elapsed from the tip incision to the stoppage of bleeding was determined as the bleeding time. The preferred compounds, aspirin (30 mg/kg) or vehicle was given orally 60 min prior to the tail incision in a group of 5 mice each.

[7] = in vivo; format: in vivo, rabbits; settings: for AUC / Cmax / MRT / Tmax: 20 mg/kg
Protocol: In-vivo pharmacokinetic parameters were generated in male NZ rabbits at a dose of 20 mg/kg by oral route of administration. The blood samples were drawn at 0.25, 0.5, 0.75, 1, 1.5, 2, 4, 6, 8, 10, 12, 18 and 24 hr post dose, processed and analyzed by Liquid Chromatography-Mass Spectrometry (LC-MS). Plasma concentration at different time points were plotted to give Plasma Concentration Time Profile and the data was fitted non-compartmentally using Win NonLin 5.1 version software and the estimates of pharmacokinetic parameters were derived with SD mean values. Maximum plasma concentration (Cmax), time to achieve maximum plasma concentration (tmax).

[8] = male, NZ, rabbit, in vivo, as stated in the summary text, read-out: tmax

Molecule | Platelet adhesion hyperlipidemic hamsters [1] | Arterio-venous shunt model in rat [2] | IC50 [3] [µM] | Collagen-epinephrine induced thrombosis in mice (duration of effect) [4] | Whole blood aggregation in hyperlipidemic hamsters [5] | Bleeding Time in mice [6] [fold] | platelet adhesion over collagen coated surface [1] | activity against collagen induced aggregation [3] | AUC ([7]; male NZ rabbits, oral) [ng·h/mL] | Cmax ([7]; male NZ rabbits, oral) | MRT ([7]; male NZ rabbits, oral) [h] | Tmax ([7]; male NZ rabbits, oral) [h] | prolongation in bleeding time [6] | thrombus weight [2] | IC50 ([3]; Platelet) [µM] | prolonged systemic exposure ([7]; as stated in the summary text) | Tmax [7, 8] [h]
1-(4-methylphenylmethyl)-5-oxo-{N-[(3-t-butoxycarbonyl-aminomethyl)]-piperidin-1-yl}-pyrrolidine-2-carboxamides [Compound 1] | Effective | Protective | ~10 | Up to 18 hrs | Effective | 2 | – | – | – | – | – | – | – | – | – | – | –
Cc1ccc(CN2C(=O)CC[C@H]2C(=O)N2CCCC(CNC(=O)OC(C)(C)C)C2)cc1 (some centres unmarked) [Compound 1, 1-(4-methylphenylmethyl)-5-oxo-{N-[(3-t-butoxycarbonyl-aminomethyl)]-piperidin-1-yl}-pyrrolidine-2-carboxamides] | – | – | – | – | – | – | significant reduction | active | 6524.15 | 947.02 ± 237.4 ng/mL | 16.20 | 0.68 | approximately 1.5 fold | – | – | – | –
Cc1ccc(CN2C(=O)CC[C@H]2C(=O)N2CCC[C@@H](CNC(=O)OC(C)(C)C)C2)cc1 [Compound 6] | Effective | Protective | – | >24 h | Effective | 1.5 | significant inhibition | active | 874.8 | 149.49 ± 53.12 ng/mL | 5.25 | 0.75 | approximately 1.5 fold | reducing the thrombus weight significantly | ~10 | more than 24 hrs | 0.75 ± 0.144
Cc1ccc(CN2C(=O)CC[C@H]2C(=O)N2CCC[C@H](CNC(=O)OC(C)(C)C)C2)cc1 [Compound 7, (2S)-1-(4-methylphenylmethyl)-5-oxo-(3R)-{N-[(3-t-butoxycarbonyl-aminomethyl)]-piperidin-1-yl}-pyrrolidine-2-carboxamide] | No effect | Protective | – | <12 h | No effect | 1.5 | no effect | active | 1112.81 | 112.81 ± 169.77 ng/mL and 112.40 ng/mL | 16.20 | 8.67 | approximately 1.5 fold | reducing the thrombus weight significantly | > 10 | – | 8.67 ± 0.66

From patent US9687480B2, “Chiral 1-(4-methylphenylmethyl)-5-oxo-{N-[(3-t-butoxycarbonyl-aminomethyl)]-piperidin-1-yl)-pyrrolidine as inhibitors of collagen induced platelet activation and adhesion” (Council of Scientific & Industrial Research, priority 2011, dated 2017)
